{"source": "ChEMBL document CHEMBL1201862", "about": "“PubChem BioAssay data set” (2004)", "target": "Envelope glycoprotein gp160 (Human immunodeficiency virus 1, UniProt Q6QLK5)", "sequence (Q6QLK5 whole entry, the tested form may be a part)": "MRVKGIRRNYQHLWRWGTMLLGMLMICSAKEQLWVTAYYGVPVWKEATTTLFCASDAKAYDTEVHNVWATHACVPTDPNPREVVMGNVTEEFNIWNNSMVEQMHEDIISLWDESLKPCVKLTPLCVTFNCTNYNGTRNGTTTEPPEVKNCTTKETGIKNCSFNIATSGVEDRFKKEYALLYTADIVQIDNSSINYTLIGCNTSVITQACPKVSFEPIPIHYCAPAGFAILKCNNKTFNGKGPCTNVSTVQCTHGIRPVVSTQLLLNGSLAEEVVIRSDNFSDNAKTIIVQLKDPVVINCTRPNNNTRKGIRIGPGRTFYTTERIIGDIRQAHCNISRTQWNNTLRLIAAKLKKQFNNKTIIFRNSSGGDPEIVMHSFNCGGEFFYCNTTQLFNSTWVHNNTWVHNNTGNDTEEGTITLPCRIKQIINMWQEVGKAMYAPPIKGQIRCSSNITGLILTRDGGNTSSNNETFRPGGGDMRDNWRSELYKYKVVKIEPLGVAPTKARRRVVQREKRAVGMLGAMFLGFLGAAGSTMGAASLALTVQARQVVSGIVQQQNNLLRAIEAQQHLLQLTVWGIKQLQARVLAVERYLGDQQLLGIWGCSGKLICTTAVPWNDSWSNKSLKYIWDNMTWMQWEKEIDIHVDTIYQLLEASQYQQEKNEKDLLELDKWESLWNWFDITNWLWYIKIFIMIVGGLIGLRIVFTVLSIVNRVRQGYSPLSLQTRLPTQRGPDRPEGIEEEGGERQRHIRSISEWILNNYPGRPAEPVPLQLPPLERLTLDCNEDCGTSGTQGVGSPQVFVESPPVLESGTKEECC", "assay": "inhibitors of HIV fusion peptide binding, primary screen, biochemical, uHTS, fluorescence dequenching (AID 1986)", "note": "Activity calls are given as the source filed them. Rule as the data show it: actives have a measured IC50 and inactives only a lower limit."}
{"compound": "O=C(Nc1cccc(C(F)(F)F)c1)c1cccc(NS(=O)(=O)c2ccc(O)c(C(=O)O)c2)c1", "values": [{"measurement": "IC50", "result": "8.83 µM (active)"}]}
{"compound": "COC(=O)c1sc(-c2ccc(C(C)(C)C)cc2)cc1NC(=O)COCC(=O)O", "values": [{"measurement": "IC50", "result": "20.9 µM (active)"}]}
